Entries after “also recorded” stand apart in the source; their conditions may differ.
Columns and labels:
[1] = Body weight and toxicity during BrdU administration (p.o. drinking water vs i.p.); assay type: in vivo
[2] = system: colon epithelial cells (CECs); assay: Flow cytometric (FACS) analysis of BrdU labeled colon epithelial cell nuclei; assay type: in vivo, Fisher 344 rats; details: for BrdU+ cells in proliferative fraction of the crypt: FACS
Description: For BrdU labeling, rats received BrdU in drinking water at 1 mg/ml. Glucose (1 g/100 ml) was added to the water to mask the taste of BrdU. BrdU was added to the water, then the bottle was shaken. Next, glucose was added and the bottle was vigorously shaken to dissolve BrdU completely. It took approximately 1-2 min for BrdU to dissolve completely. It was important to prepare BrdU drinking water freshly everyday during the feeding period.
Colon was excised fresh at necropsy. Feces were removed with 0.015M NaCl solution with 0.001M dithiothreitol (DTT) and the colon was placed in cold, 1.6% Joklik's modified medium (JMMEM, Gibco Invitrogen, Grand Island, N.Y.) for 120 minutes. CECs from different proliferative fractions of the crypt were separated sequentially using the nonenzymatic, mechanical dissociation method described elsewhere. CEC from different crypt fractions (basal proliferative fraction and top mature fraction) were collected by incubating the colon sac filled with PBS buffers containing chelating agents. The tissue was shaken in a 37° C. water bath for 20 minutes, then 15 minutes and 30 minutes for collecting CECs from top, middle and the basal fractions, respectively. The middle fraction (transitional fraction) was discarded. The collected CECs were then separated from intraepithelial lymphocytes and other contaminants by applying to a discontinuous Percoll (Amersham Biosciences, Uppsala, Sweden) gradient centrifugation, with 45% Percoll overlaid on 75% Percoll. CEC from the proliferative fraction (the base of the crypts) were collected and used for FACS and GC/MS analysis since LRCs are known to be located at this region. The CECs from the mature (top) fractions from the rats that were given ^2H2O for 2-3 weeks were used as fully turned over CECs to represent the maximal ^2H labeling in DNA. A part of the distal and proximal colon was used for immunohistochemistry.
The staining protocol was as described elsewhere, and was modified for CECs. The CECs were separated from colon (as described above) and filtered through a Falcon tube 2235. The cells were then fixed with ice cold 95% ethanol while vortexing, centrifugated at 800 g for 3 minutes and washed in cold PBS (without Ca^++ and Mg^++) once. […] Two million cells were washed of ethanol in 150 ul of PBS, incubated in 1% NP 40 (Sigma) solution in the refrigerator for 30 minutes, centrifugated at 10,000 g, and the pellet was collected and washed in PBS. Two million CEC nuclei were added to each well in 96 well plates (round bottom), then 150 ul of 1% paraformaldehyde with 0.01% Tween 20 in PBS was added for additional fixation and permeabilization. The cells were kept at room temperature for 30 minutes then at 4° C. for 15 minutes, prior to centrifugation at 800 g for 3 minutes and washing in cold PBS once. Next, 150 μl of DNase I (50 kunits/ml) was added at room temperature for 15 minutes to allow denaturation of nuclear DNA. […] For negative controls, an equal concentration of mouse IgG1 FITC isotype control antibodies (Becton Dickinson, Cat 349041) were used to correct for background fluorescence. […]
At the end of each BrdU labeling period (0 week delabed), we analyzed the percent of BrdU positive cells from the proliferative fraction of the crypt (where LRCs have previously been located). This maximal BrdU labeled sample was analyzed to confirm the efficacy of BrdU administration. […]

CEC = CEC proliferation rates of BrdU treated vs control rats (preliminary study); assay type: in vivo; details: data not shown
Excerpt: There have been reports on the inhibitory effects of BrdU on cell proliferation and differentiation in vitro and in vivo at various concentrations and in various cell types. Since BrdU toxicity is strain and cell type specific, we cannot completely assess possible toxic effects from BrdU on the proliferation of LRCs.

[3] = Body water ^2H2O enrichment by GC/MS during ^2H2O administration; assay type: in vivo, Fisher 344 rats; details: for Body Water ^2H2O Enrichment: 8% ^2H2O drinking water
Description: Rats were primed with 99.9% ^2H2O i.p. at the start of the ^2H2O labeling period. The volume injected was 4% of the estimated body water volume. Then they were maintained on 8% ^2H2O enriched drinking water ad libitum for up to 8 weeks (19).
Body water enrichments were measured by a gas chromatographic/mass spectrometer (GC/MS) technique that we have described previously.
Body water ^2H2O enrichments were measured from plasma obtained from rats sacrificed at each time point. Achievement of plateau ^2H enrichments in body water during long-term ^2H2O administration is desirable because it signifies a stable DNA synthesis precursor enrichment for labeling of DNA. Body water enrichment from rats that were on ^2H2O for 2-8 weeks reached expected values and remained at those plateau levels (3.9-4.3%) throughout the study (FIG. 3).

Structure (SMILES)	Toxicity or weight loss ([1]; BrdU 1 mg/ml in drinking water, long-term)	Toxicity (body weight) ([1]; BrdU i.p., repeated injections once a day for 8 days)	BrdU+ cells in proliferative fraction, mean±SD over labeling periods ([2]; 0 week delabeled, mean of 2, 4 and 8 weeks BrdU p.o.) [%]	BrdU positive cells after 4 and 8 weeks of BrdU administration ([2]; 4 and 8 weeks BrdU p.o.)	BrdU+ cells in proliferative fraction of the crypt ([2]; after 4 weeks BrdU p.o., 0 week delabeled) [%]	BrdU+ cells in proliferative fraction of the crypt ([2]; after 8 weeks BrdU p.o., 0 week delabeled) [%]	BrdU incorporation / fluorescence of CEC, i.p. vs p.o. ([2]; repeated i.p. injection once a day for 8 days compared with p.o. drinking water)	CEC proliferation rates vs control rats (CEC)	Body Water ^2H2O Enrichment ([3]; Week 1 of ^2H2O administration)	Body Water ^2H2O Enrichment ([3]; Week 3 of ^2H2O administration)	Body Water ^2H2O Enrichment ([3]; Week 4 of ^2H2O administration)	Delabeling time for ^2H2O to be almost completely washed out of the body water pool ([3]; after stopping ^2H2O intake, found previously in applicant's lab)	Body water enrichment, plateau levels ([3]; rats on ^2H2O for 2-8 weeks, measured from plasma)	Body water enrichment maintained throughout the study ([3]; throughout the study)
O=c1[nH]c(=O)n([C@H]2C[C@H](O)[C@@H](CO)O2)cc1Br [BrdU, bromodeoxyuridine]	did not cause any detectable toxicity or weight loss	caused toxicities; also recorded: caused weight loss; also recorded: toxicities were observed	77±12	65-77%	65	77	more BrdU incorporation and thus higher fluorescence	same CEC proliferation rates as the control rats	–	–	–	–	–	–
[2H]O[2H] [^2H2O, deuterated water]	–	–	–	–	–	–	–	–	4.29	3.93	4.30	less than 1 week	3.9-4.3%	4.2±0.2 % of total body water

From patent publication US20030224420A1, “Method for isolating and measuring proliferation of long-term label retaining cells and stem cells” (priority 2002, published 2003)
